Holding throughout (format): functional, Zucker
For test [1], the system named is Rattus norvegicus. Description: Antidyslipidemic activity in ZDF rat assessed as LDL/IgHDL level at 0.3 mg/kg for 9 days by FPLC analysis (reference value: 17.8 mg/dL).
In test [2] the test system is Rattus norvegicus. Description: Antidyslipidemic activity in ZDF rat assessed as HDL level at 0.3 mg/kg for 9 days by FPLC analysis (reference value: 48.3 mg/dL).
In test [3] the test system is Rattus norvegicus. Description: Antidyslipidemic activity in ZDF rat assessed as VLDL level at 0.3 mg/kg for 9 days by FPLC analysis (reference value: 35 mg/dL).

Consider `CN(CCOc1ccc(CC2SC(=O)NC2=O)cc1)c1ccccn1` (stereo not drawn) [ROSIGLITAZONE], for which the Activity with Rattus norvegicus [1] turned out to be 19 mg/dL; in the test with Rattus norvegicus [2], 61.3 mg/dL; in the test with Rattus norvegicus [3], 26.3 mg/dL.

The values are drawn from ChEMBL document CHEMBL3745677, “Discovery of 6-(4-{[5-Cyclopropyl-3-(2,6-dichlorophenyl)isoxazol-4-yl]methoxy}piperidin-1-yl)-1-methyl-1H-indole-3-carboxylic Acid: A Novel FXR Agonist for the Treatment of Dyslipidemia” (J Med Chem, 2015).
